Structures can show the parent of a compound that is named as a salt. Where two headings read alike, the source gives them in different places.
Legend:
[1] = Light emission spectra by Fast Spectral Scanning System (FSSS); format: physicochemical
Method: The light emission spectra of compounds 1˜12 and 15˜18 were determined by a Fast Spectral Scanning System (FSSS) of Photo Research (a division of Kollmorgen Corp.) of Burbank, Calif., U.S.A. The experiment was carried out in a dark room. Each compound was dissolved in acetonitrile or N,N-dimethylformamide. The resulting concentrate was diluted with the same solvent to form the working solution, which upon flashing gave a light emission with an adequate intensity. A typical experiment utilized 10˜100 μg or more of the sample in 500 μl of the solvent contained in a 13×100 mm borosilicate test tube. The tube was placed on a test tube rack raised to a proper height. A piece of aluminum foil was placed on the back of the tube to enhance the detectability of the emitted light. The FSSS optical head was placed in front of the tube at an approximate distance of about 130 mm with its lens focused on the liquid in the tube. The sample solution was first treated with 0.35 ml of the Flashing Reagent #1 (Bayer Diagnostics) containing 0.1 N HNO3 and 0.5% H2O2. The room was then darkened, and 0.35 ml of the Flashing Reagent #2 (Bayer Diagnostics) containing 0.25 N NaOH and 0.5% ARQUAD was added to the reaction mixture immediately. (See U.S. Pat. No. 4,927,769, which is commonly assigned and incorporated herein by reference.) The light which was generated instantaneously following the addition of the Reagent #2 was recorded by FSSS for 5 seconds starting from about one second before the Reagent #2 was added.

[2] = target: T1, alkaline phosphatase (Bos taurus, UniProt P19111); test: Enzymatic conversion of substrate by alkaline phosphatase (HPLC analysis); format: biochemical; details: alkaline aqueous medium; about 1 hour
T1 sequence (P19111 20-506): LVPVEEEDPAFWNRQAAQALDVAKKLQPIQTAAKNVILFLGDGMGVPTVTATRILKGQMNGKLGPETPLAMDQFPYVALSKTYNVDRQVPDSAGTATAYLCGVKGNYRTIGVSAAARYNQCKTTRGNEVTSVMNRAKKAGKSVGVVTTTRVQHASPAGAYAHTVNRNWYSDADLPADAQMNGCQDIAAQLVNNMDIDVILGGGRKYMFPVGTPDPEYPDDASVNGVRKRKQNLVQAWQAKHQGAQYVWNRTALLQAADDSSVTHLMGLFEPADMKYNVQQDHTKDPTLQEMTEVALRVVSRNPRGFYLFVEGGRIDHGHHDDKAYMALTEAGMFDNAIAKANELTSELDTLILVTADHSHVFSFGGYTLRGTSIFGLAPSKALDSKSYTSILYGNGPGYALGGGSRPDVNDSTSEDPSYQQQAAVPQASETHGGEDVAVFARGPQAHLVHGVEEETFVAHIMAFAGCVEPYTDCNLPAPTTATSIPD
Method: A 1 mM DMF solution of the acridinium 3-enol-phosphate (13) was mixed with 150 μL of 100 mM Tris pH 9 also containing 1 mM MgCl2. Alkaline phosphatase (5 μl of a 2 mg/ml solution) was added and the reaction was incubated at room temperature for ˜1 hour. […] The product was isolated by semi-preparative HPLC using a 7.8×300 mm, C18 column. MALDI-TOF MS of the product indicated this was indeed the keto product (14): m/z 521.36 obs. (520.56 calc.).
A 20 μL DMF solution of the acridan (15) (1.7 mM) was combined with 180 μl of 0.15 M 2-amino-2-methyl-1-propanol pH 10.3 also containing 1 mM magnesium acetate. A clear blue solution was obtained (0.17 mM substrate), which was then treated with alkaline phosphatase (10^−10 moles). The blue color was discharged instantly. […] The reaction mixture was then evaluated by the FSSS to determine the light emission spectrum of the product, which is shown in FIG. 2N. The product was isolated by semi-preparative HPLC. […] (521.56 calc.).

[3] = strong alkaline solution; disclosed in WO 00/09487; cited from earlier work
[4] = Quantum yield when flashed with alkaline solution first, then hydrogen peroxide; format: physicochemical; details: 0.25 N sodium hydroxide with 0.5% AQUARD first, followed by 0.5% hydrogen peroxide
Method: More specifically, when a solution of 1 is treated with 0.25 N sodium hydroxide solution containing 0.5% AQUARD, followed by 0.5% hydrogen peroxide, the quantum yield of 1 is lowered by more than 30 fold. […] Thus, to the advantage of better distinction between the signals of certain chemiluminescent products and their substrates, preferably, said alkaline solution contains sodium hydroxide at concentration of 0.01 to 1.0 N, and AQUARD at concentration of 0.01 to 1%, and said hydrogen peroxide solution contains hydrogen peroxide at concentration of 0.001 to 5%. More preferably, said alkaline solution contains 0.25 N sodium hydroxide and 0.5% AQUARD, and said hydrogen peroxide solution contains 0.5% hydrogen peroxide.

[5] = target: T1, alkaline phosphatase; test: Alkaline phosphatase assay using 2-Phos-DMAE (1) as chemiluminescent substrate; format: biochemical; details: 0.1 mM substrate, pH 9 Tris, 45° C., 1 hour; R2228P PMT, LL700 filter, 4° C.
Method: With one or more of the above approaches combined, several assay systems based on the principle of detecting the long emission signal generated by the action of AP on 2-Phos-DMAE (1) are constructed, and disclosed in the section of Examples. One example (Example 17) consists of the incubation of AP standards in a substrate solution containing 0.1 mM 2-Phos-DMAE (1), 1 mM magnesium chloride in 100 mM, pH 9 Tris buffer at 45° C. for 1 hour. The light outputs were measured on a luminometer equipped with a red-sensitive PMT (R2228P) and a long pass filter (LL700), which is placed in a 4° C. cold room. The sample was treated first with 0.25 N sodium hydroxide solution containing 0.5% AQUARD, immediately followed by 0.5% hydrogen peroxide.
The substrate solution of 2-Phos-DMAE (1) was prepared at 0.1 mM in 100 mM, pH 9.0 Tris buffer containing 1 mM MgCl2. […] The light outputs were measured for 2 seconds on Bayer Diagnostics Magic Lite Analyzer 1 (MLA-1) equipped with R268 PMT and two LL650 long wavelength pass filters (Corion, Lot No. CFS-002645). […]
According to Example 16, an assay of alkaline phosphatase was carried out by adding 5 μl of the AP standard to 95 μl of the substrate solution. […] The light outputs were measured for 2 seconds on MLA-1 equipped with R2228P PMT and a LL700 long wavelength pass filters, and the unit was pre-cooled in a cold room (4° C).

[6] = FSSS, hydrogen peroxide in strong alkaline solution
[7] = spectral region with signal intensity above 5% of peak height, FSSS scanning limit 380-780 nm, flashed with 0.1 N HNO3/0.5% H2O2 then 0.25 N NaOH/0.5% ARQUAD

Compound | Emission Maximum [1, 6] [nm] | Emission Range [1, 7] | further results
COc1ccc2c(c1)c(C(=O)Oc1c(C)cc(C(=O)O)cc1C)c1cc(O)ccc1[n+]2C [Compound 10, (2′,6′-dimethyl-4′-carboxyl)phenyl 2-hydroxy-7-methoxy-10-methyl acridinium-9-carboxylate] | 674 | 520-780^ nm | longer emission maxima than unmethoxylated compound 2 ([1]; 2-OH-7-MeO-DMAE vs 2-OH-DMAE): 60-70 nm
Cc1cc(C(=O)OCc2ccccc2)cc(C)c1OC(=O)c1c2ccccc2[n+](C)c2ccc(OP(=O)(O)O)cc12 [Compound 3, (2′,6′-dimethyl-4′-benzyloxy-carbonyl)phenyl 2-phosphoryloxy-10-methyl-acridinium-9-carboxylate trifluoroacetate] | 474 | 430-600 nm | 
Cc1cc(C(=O)O)cc(C)c1OC(=O)c1c2ccccc2[n+](CCCCS(=O)(=O)[O-])c2ccc(OP(=O)(O)O)cc12 [Compound 7, (2′, 6′-dimethyl-4′-carboxyl)phenyl 2-phosphoryloxy-10-sulfobutyl-acridinium-9-carboxylate] | 474 | 430-600 nm | 
(2′,6′-dimethyl-4′-carboxyl)phenyl 3-(β-phosphoryloxy-4′-hydroxystyryl)-10-methyl acridan [Compound 15] | 678 | 520-780^ nm | conversion by alkaline phosphatase [2]: clean conversion
C[n+]1c2ccccc2c(C(=O)Oc2ccccc2)c2cc(O)ccc21 [Compound 6, phenyl 2-hydroxy-10-methyl-acridinium-9-carboxylate trifluoromethanesulfonate] |  |  | Emission Maximum [1]: 600 nm; Emission Range [1]: 500-780^ nm
COc1ccc2c(c1)c(C(=O)Oc1c(C)cc(C(=O)O)cc1C)c1cc(OP(=O)(O)O)ccc1[n+]2C.[Na+].[Na+] [Compound 9, (2′,6′-dimethyl-4′-carboxyl)phenyl 2-phosphoryloxy-7-methoxy-10-methyl acridinium-9-carboxylate] | 476 | 440-600 nm | 
Cc1cc(C(=O)O)cc(C)c1OC(=O)c1c2ccccc2[n+](C)c2ccc(O)cc12 [Compound 2, (2′,6′-dimethyl-4′-carboxyl)phenyl 2-hydroxy-10-methyl-acridinium-9-carboxylate trifluoroacetate] | 602 | 500-780^ nm | emission λmax [3]: 604 nm; lowering of quantum yield [4]: basically not affected; bathochromic shift of emission maximum ([1]; compound 2 relative to compound 1): 128 nm
C[n+]1c2ccccc2c(C(=O)Oc2ccccc2)c2cc(OP(=O)(O)O)ccc21 [Compound 5, phenyl 10-methyl-2-Phosphoryloxy-acridinium-9-carboxylate trifluoroacetate] | 478 | 430-600 nm | 
Cc1cc(C(=O)O)cc(C)c1OC(=O)c1c2ccccc2[n+](CCCCS(=O)(=O)[O-])c2ccc(O)cc12 [Compound 8, (2′, 6′-dimethyl-4′-carboxyl)phenyl 2-hydroxy-10-sulfobutyl-acridinium-9-carboxylate] | 594 | 500-780^ nm | 
Cc1cc(C(=O)O)cc(C)c1OC(=O)c1c2ccccc2[n+](C)c2cc(/C(=C/c3ccc(O)cc3)OP(=O)(O)O)ccc12 [Compound 13, (2′,6′-dimethyl-4′-carboxyl)phenyl 3-(β-phosphoryloxy-4′-hydroxystyryl)-10-methyl acridinium-9-carboxylate trifluoromethanesulfonate] |  |  | conversion by alkaline phosphatase [2]: complete conversion
C[n+]1c2ccccc2c(C(=O)Oc2ccc(O)cc2)c2ccccc21 [Compound 18, 4′-hydroxyphenyl 10-methyl acridinium-9-carboxylate trifluoromethanesulfonate] |  |  | Emission Maximum [1]: 452 nm; Emission Range [1]: 410-540 nm
Cc1cc(C(=O)O)cc(C)c1OC(=O)c1c2ccccc2[n+](C)c2ccc(OP(=O)(O)O)cc12.[Na+].[Na+] [Compound 1, (2′,6′-dimethyl-4′-carboxyl)phenyl 10-methyl-2-Phosphoryloxy-acridinium-9-carboxylate bromide] | 478 | 430-600 nm | lowering of quantum yield [4]: more than 30 fold; level of alkaline phosphatase detected [5]: below 1×10^−18 mole; conversion by alkaline phosphatase [2]: excellent substrate
Cc1cc(C(=O)OCc2ccccc2)cc(C)c1OC(=O)c1c2ccccc2[n+](C)c2ccc(O)cc12 [Compound 4, (2′,6′-dimethyl-4′-benzyl-oxycarbonyl)phenyl 2-hydroxy-10-methyl-acridinium-9-carboxylate trifluoroacetate] | 604 | 500-780^ nm | 
CN1c2ccccc2C2(Oc3ccccc3OC2=O)c2cc(OP(=O)(O)O)ccc21 (centres unmarked) [Compound 11, 2-Phos-Spiroacridan] | 474 | 430-600 nm | 

— patent US7459284B2, “Chemiluminescent acridinium compounds and analogues thereof as substrates of hydrolytic enzymes” (Siemens Healthcare Diagnostics Inc., priority 1999, dated 2008)
